In US8841456B2, “1,5-naphthyridine derivative or salt thereof” (FUJIFILM Corporation, priority 2011, dated 2014):
Where two headings read alike, the source gives them in different places.

Columns and labels:
[1] = molecular target: T1, human PI3Kα protein (Homo sapiens, UniProt P42336); test: PI3Kα enzyme assay (ADP-Glo kinase assay); format: biochemical; details: 3 nM PI3Kα, 50 μM PIP2, 100 μM ATP
T1 construct: purchased Carna Biosciences, Inc; host or cells: Baculovirus expression system
In short: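 Baculovirus-expressed biotinylated human PI3Kα (3 nM) preincubated 15 min with compound in Tris pH 7.5, MgCl2, BSA, then reacted 60 min at 25 °C with 50 μM PIP2 and 100 μM ATP. ADP quantified by ADP-Glo luminescence; IC50 calculated.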

[2] = molecular target: T2, glutathione S-transferase (GST)-fusion human ERK2 protein (Homo sapiens, UniProt P28482); test: ERK2 enzyme assay (LabChip mobility shift); format: biochemical; details: 2 nM ERK2, 4.25 μM FL-Peptide 8, 43 μM ATP
T2 construct: purchased Carna Biosciences, Inc; host or cells: E. coli expression system
In short: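 GST-tagged human ERK2 from E. coli, at 2 nM, was preincubated 15 min at room temperature with compound in Hepes pH 7.5 with MgCl2, DTT and Brij35. The reaction ran 120 min at 25 °C with 4.25 μM FL-Peptide 8 and 43 μM ATP (final). Phosphopeptide fraction was measured by mobility-shift separation to give IC50.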

[3] = tested on: Human colon cancer cell line (HCT116); test: Cell growth inhibition test (Celltiter-Glo); format: cell-based; details: HCT-116, IC50 class, 72 hours culture, viable cells by Celltiter-Glo
Procedure: Evaluation of the cell proliferation inhibitory activity of the compound of the present invention was carried out according to the method below. Human colon cancer cell line (HCT116) McCoy's 5A (INVITROGEN)+Final Concentration 10% FBS+GLUTA Max (INVITROGEN) Celltiter-Glo™ Luminescent Cell Viability Assay (Promega Corporation) HCT116 was seeded on a 96-well culture microplate (Corning Inc.) at 750/well (90 uL/well), and a compound for evaluation (final concentration: 25.00 μM to 0.01 μM, 3-fold common ratio 8 points) was added thereto. After culturing in a CO2 incubator (37° C.) for 72 hours, the number of viable cells were calculated by Celltiter-Glo. For the measurement of luminescence intensity, EnVision (PerkinElmer, Inc.) was used. The inhibitory activity of the compound was calculated using IC50 (50% inhibitory concentration). The IC50 was calculated using XLfit (IDBS). The results of IC50 were evaluated according to the following evaluation criteria.

[4] = IC50 class, read-out: PI3Kα Inhibitory Activity
[5] = IC50 class, read-out: ERK2 Inhibitory Activity

T2 sequence (P28482 whole entry, the tested form may be a part): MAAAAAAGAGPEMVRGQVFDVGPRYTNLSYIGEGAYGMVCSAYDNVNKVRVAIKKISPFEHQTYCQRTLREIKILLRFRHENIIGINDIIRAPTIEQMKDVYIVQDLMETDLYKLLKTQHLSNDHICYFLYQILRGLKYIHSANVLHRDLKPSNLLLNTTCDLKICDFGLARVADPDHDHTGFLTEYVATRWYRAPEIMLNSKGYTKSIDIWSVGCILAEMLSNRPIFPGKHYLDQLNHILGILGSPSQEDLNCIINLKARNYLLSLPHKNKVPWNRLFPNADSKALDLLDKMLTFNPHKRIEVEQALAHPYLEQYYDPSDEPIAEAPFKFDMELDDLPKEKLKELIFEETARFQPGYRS
T1 sequence (P42336 whole entry): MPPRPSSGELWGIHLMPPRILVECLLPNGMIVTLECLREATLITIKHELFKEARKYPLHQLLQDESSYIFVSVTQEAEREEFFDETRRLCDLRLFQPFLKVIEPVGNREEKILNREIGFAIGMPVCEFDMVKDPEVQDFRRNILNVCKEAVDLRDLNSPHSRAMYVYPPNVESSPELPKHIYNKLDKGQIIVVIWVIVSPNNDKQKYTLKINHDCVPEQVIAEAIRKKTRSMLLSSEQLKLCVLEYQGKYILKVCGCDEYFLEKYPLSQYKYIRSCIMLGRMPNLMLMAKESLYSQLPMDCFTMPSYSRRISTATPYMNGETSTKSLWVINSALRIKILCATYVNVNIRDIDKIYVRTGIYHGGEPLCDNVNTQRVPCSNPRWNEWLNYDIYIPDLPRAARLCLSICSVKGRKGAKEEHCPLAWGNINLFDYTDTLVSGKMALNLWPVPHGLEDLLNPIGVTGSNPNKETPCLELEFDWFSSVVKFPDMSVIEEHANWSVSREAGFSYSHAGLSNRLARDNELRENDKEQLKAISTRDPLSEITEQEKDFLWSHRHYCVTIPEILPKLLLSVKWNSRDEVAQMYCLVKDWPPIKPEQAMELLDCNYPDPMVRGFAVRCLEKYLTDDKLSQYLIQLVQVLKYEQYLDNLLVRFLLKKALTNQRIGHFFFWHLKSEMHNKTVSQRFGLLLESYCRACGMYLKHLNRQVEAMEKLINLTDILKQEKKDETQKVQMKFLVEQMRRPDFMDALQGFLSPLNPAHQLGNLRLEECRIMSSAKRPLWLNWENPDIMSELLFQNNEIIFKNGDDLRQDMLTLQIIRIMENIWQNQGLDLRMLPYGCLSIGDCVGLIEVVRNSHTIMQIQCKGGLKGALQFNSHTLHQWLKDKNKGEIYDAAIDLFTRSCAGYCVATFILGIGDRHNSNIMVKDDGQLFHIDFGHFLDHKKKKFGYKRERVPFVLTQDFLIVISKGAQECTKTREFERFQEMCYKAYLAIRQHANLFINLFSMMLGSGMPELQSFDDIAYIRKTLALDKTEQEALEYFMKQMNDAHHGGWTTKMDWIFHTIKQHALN
T1 sequence (P27986 whole entry partner): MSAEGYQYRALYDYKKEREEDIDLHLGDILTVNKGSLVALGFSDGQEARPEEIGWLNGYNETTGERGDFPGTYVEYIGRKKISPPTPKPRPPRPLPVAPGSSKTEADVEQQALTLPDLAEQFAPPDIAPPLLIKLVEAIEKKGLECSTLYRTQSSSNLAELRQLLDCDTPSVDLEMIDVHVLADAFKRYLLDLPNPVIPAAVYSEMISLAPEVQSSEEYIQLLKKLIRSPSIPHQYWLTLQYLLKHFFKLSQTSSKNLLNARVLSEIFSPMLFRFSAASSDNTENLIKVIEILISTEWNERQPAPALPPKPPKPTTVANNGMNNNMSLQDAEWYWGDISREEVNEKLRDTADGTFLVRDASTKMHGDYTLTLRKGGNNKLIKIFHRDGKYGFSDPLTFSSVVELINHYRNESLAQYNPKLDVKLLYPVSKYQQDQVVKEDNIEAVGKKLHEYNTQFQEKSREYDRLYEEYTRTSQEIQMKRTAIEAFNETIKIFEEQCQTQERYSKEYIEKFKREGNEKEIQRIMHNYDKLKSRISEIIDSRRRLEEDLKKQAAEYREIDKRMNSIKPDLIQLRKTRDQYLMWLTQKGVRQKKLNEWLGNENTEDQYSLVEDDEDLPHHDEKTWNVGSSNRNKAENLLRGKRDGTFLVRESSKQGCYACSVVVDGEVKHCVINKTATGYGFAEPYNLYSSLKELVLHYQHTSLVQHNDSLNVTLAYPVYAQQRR

CCCC(C)(C)NC(=O)Nc1ccc2ncc(-c3cnn(CCCN4CCOCC4)c3)cc2n1 [Compound 0182]
IC50 [1, 4]: < 100 nM | IC50 [2, 5]: < 100 nM | IC50 [3]: < 1000 nM

O=C(Nc1ccc2ncc(N3CCOC3=O)cc2n1)NC1CCCC1 [Compound 0046]
IC50 [1, 4]: < 100 nM | IC50 [2, 5]: 100 to 1000 nM | IC50 [3]: 1000 to 10000 nM

CN1CCC(n2cc(-c3cnc4ccc(NC(=O)NC5(C)CCCC5)nc4c3)cn2)CC1 [Compound 0255]
IC50 [1, 4]: < 100 nM | IC50 [2, 5]: 100 to 1000 nM | IC50 [3]: < 1000 nM

O=C(Nc1ccc2ncc(N3CCN(c4cccnc4)CC3)cc2n1)NC1CCCC1 [Compound 0157]
IC50 [1, 4]: < 100 nM | IC50 [2, 5]: 100 to 1000 nM | IC50 [3]: < 1000 nM

O=C(Nc1ccc2ncc(N3CCN(c4ccncc4)CC3)cc2n1)NC1CCCC1 [Compound 0158]
IC50 [1, 4]: < 100 nM | IC50 [2, 5]: 100 to 1000 nM | IC50 [3]: < 1000 nM

CN(C)CC(C)(C)Cn1cc(-c2cnc3ccc(NC(=O)NC4CCCC4)nc3c2)cn1 [Compound 0243]
IC50 [1, 4]: < 100 nM | IC50 [2, 5]: 100 to 1000 nM | IC50 [3]: < 1000 nM

O=C(Nc1ccc2ncc(-c3cccc(CO)c3)cc2n1)NC1CCCC1 [Compound 0041]
IC50 [1, 4]: 100 to 1000 nM | IC50 [2, 5]: < 100 nM | IC50 [3]: 1000 to 10000 nM

O=C(Nc1ccc2ncc(N3CCN(c4ccccn4)CC3)cc2n1)NC1CCCC1 [Compound 0154]
IC50 [1, 4]: 100 to 1000 nM | IC50 [2, 5]: 100 to 1000 nM | IC50 [3]: < 1000 nM

O=C(Nc1ccc2ncc(-c3ccccn3)cc2n1)NC1CCCC1 [Compound 0136]
IC50 [1, 4]: < 100 nM | IC50 [2, 5]: < 100 nM | IC50 [3]: 1000 to 10000 nM

CC(=O)N1CCN(c2cnc3ccc(NC(=O)NC4CCCC4)nc3c2)CC1 [Compound 0148]
IC50 [1, 4]: < 100 nM | IC50 [2, 5]: 100 to 1000 nM | IC50 [3]: 1000 to 10000 nM

CS(=O)(=O)Nc1cccc(-c2cnc3ccc(NC(=O)NC4CCCC4)nc3c2)c1 [Compound 0035]
IC50 [1, 4]: < 100 nM | IC50 [2, 5]: < 100 nM

O=C(Nc1ccc2ncc(-c3cccc(O)c3)cc2n1)NC1CCCC1 [Compound 0033]
IC50 [1, 4]: 100 to 1000 nM | IC50 [2, 5]: < 100 nM

S=C(Nc1ccc2ncc(-c3cnn(CCN4CCOCC4)c3)cc2n1)NC1CCCC1 [Compound 0138]
IC50 [1, 4]: < 100 nM | IC50 [2, 5]: < 100 nM

O=C(NCCn1cnc2ccccc21)Nc1ccc2ncc(-c3cn[nH]c3)cc2n1 [Compound 0111]
IC50 [1, 4]: 1000 to 10000 nM | IC50 [2, 5]: 100 to 1000 nM

O=C(Nc1ccc2ncc(-c3cn[nH]c3)cc2n1)N[C@@H]1CC[C@H](CF)C1 [Compound 0200]
IC50 [1, 4]: < 100 nM | IC50 [2, 5]: < 100 nM

CN(C)CCn1cc(-c2cnc3ccc(NC(=S)N[C@@H]4C[C@H]5CC[C@@H]4C5)nc3c2)cn1 [Compound 0213]
IC50 [1, 4]: 100 to 1000 nM | IC50 [2, 5]: < 100 nM

O=C(NCCCCc1ccccc1)Nc1ccc2ncc(-c3cn[nH]c3)cc2n1 [Compound 0064]
IC50 ([1]; read-out: PI3Kα, IC50): 50 nM | IC50 [1, 4]: < 100 nM | IC50 ([2]; read-out: ERK2, IC50): < 3 nM | IC50 [2, 5]: < 100 nM

CS(=O)(=O)C1CCN(CCn2cc(-c3cnc4ccc(NC(=O)NC5CCCC5)nc4c3)cn2)CC1 [Compound 0218]
IC50 [1, 4]: < 100 nM | IC50 [2, 5]: < 100 nM

O=C(Nc1ccc2ncc(-c3cn[nH]c3)cc2n1)NC1CCCCC1 [Compound 0061]
IC50 [1, 4]: < 100 nM | IC50 [2, 5]: < 100 nM

CN(C)CCNC(=O)C1CCN(c2cnc3ccc(NC(=O)NC4CCCC4)nc3c2)CC1 [Compound 0150]
IC50 [1, 4]: 100 to 1000 nM | IC50 [2, 5]: 1000 to 10000 nM

S=C(Nc1ccc2ncc(-c3cnn(CCCN4CCNCC4)c3)cc2n1)NC1CCCC1 [Compound 0220]
IC50 [1, 4]: < 100 nM | IC50 [2, 5]: < 100 nM

O=C(NCCCCc1cccc(Cl)c1)Nc1ccc2ncc(-c3cn[nH]c3)cc2n1 [Compound 0166]
IC50 [1, 4]: 100 to 1000 nM | IC50 [2, 5]: < 100 nM

CS(=O)(=O)N1CCN(c2cnc3ccc(NC(=O)NC4CCCC4)nc3c2)CC1 [Compound 0151]
IC50 [1, 4]: < 100 nM | IC50 [2, 5]: < 100 nM

CC(C)OCCNC(=O)Nc1ccc2ncc(-c3cn[nH]c3)cc2n1 [Compound 0099]
IC50 [1, 4]: 100 to 1000 nM | IC50 [2, 5]: < 100 nM

O=C(NCC1CCOC1)Nc1ccc2ncc(-c3cn[nH]c3)cc2n1 (centres unmarked) [Compound 0197]
IC50 [1, 4]: 100 to 1000 nM | IC50 [2, 5]: < 100 nM

O=C(Nc1ccc2ncc(-c3cnn(CCCN4CCOCC4)c3)cc2n1)N[C@@H]1CCN(Cc2ccccc2)C1 [Compound 0175]
IC50 [1, 4]: 100 to 1000 nM | IC50 [2, 5]: < 100 nM

O=C(Nc1ccc2ncc(N3CC(OCCCN4CCOCC4)C3)cc2n1)NC1CCCC1 [Compound 0240]
IC50 [1, 4]: < 100 nM | IC50 [2, 5]: 100 to 1000 nM

CCOC(=O)c1nn(C)cc1-c1cnc2ccc(NC(=O)NC3CCCC3)nc2c1 [Compound 0215]
IC50 [1, 4]: < 100 nM | IC50 [2, 5]: 100 to 1000 nM

O=C(Nc1ccc2ncc(N3CC(OCCN4CCOCC4)C3)cc2n1)NC1CCCC1 [Compound 0241]
IC50 [1, 4]: < 100 nM | IC50 [2, 5]: 100 to 1000 nM

O=C(Nc1ccc2ncc(-c3cnn(CCN4CCOCC4)c3)cc2n1)NC1CCCC1 [Compound 0004]
IC50 [1, 4]: < 100 nM | IC50 [2, 5]: < 100 nM

CC(C)[C@@H](C)NC(=O)Nc1ccc2ncc(-c3cn[nH]c3)cc2n1 [Compound 0082]
IC50 [1, 4]: < 100 nM | IC50 [2, 5]: < 100 nM

O=C(Nc1ccc2ncc(-c3cn[nH]c3)cc2n1)NN1CCCC1 [Compound 0204]
IC50 [1, 4]: 100 to 1000 nM | IC50 [2, 5]: 100 to 1000 nM

O=C(Nc1ccc2ncc(-c3cnn(CCN4CCOCC4)c3)cc2n1)NC1C[C@H]2CC[C@@H]1C2 (some centres unmarked) [Compound 0114]
IC50 [1, 4]: < 100 nM | IC50 [2, 5]: < 100 nM

CN1CC(n2cc(-c3cnc4ccc(NC(=O)NC5CCCC5)nc4c3)cn2)C1 [Compound 0145]
IC50 [1, 4]: < 100 nM | IC50 [2, 5]: 100 to 1000 nM

O=C(Nc1ccc2ncc(-c3ccc4[nH]ncc4c3)cc2n1)NC1CCCC1 [Compound 0122]
IC50 [1, 4]: < 100 nM | IC50 [2, 5]: < 100 nM

O=C(Nc1ccc2ncc(-c3cnn(CCN4CCOCC4)c3)cc2n1)NS(=O)(=O)c1ccccc1 [Compound 0208]
IC50 [1, 4]: > 10000 nM | IC50 [2, 5]: > 10000 nM

CN(CCO)CCn1cc(-c2cnc3ccc(NC(=O)NC4CCCC4)nc3c2)cn1 [Compound 0045]
IC50 [1, 4]: < 100 nM | IC50 [2, 5]: < 100 nM
